Measured values as given in ChEMBL document CHEMBL4261488, “Do GluN2B subunit containing NMDA receptors tolerate a fluorine atom in the phenylalkyl side chain?” (Medchemcomm, 2017).
pKi: −log10 of the molar value.

Experiments:
[1] = target: Glutamate receptor ionotropic, NMDA 2B (Homo sapiens, UniProt Q13224); assay: Displacement of [3H]-ifenprodil from GluN2B receptor (unknown origin) expressed in mouse L (tk-) cell membranes after 120 mins by scintillation counting method
Sus scrofa = species: Sus scrofa; assay: Displacement of [3H]-(+)-MK-801 from PCP binding site of NMDA receptor in pig brain cortex membranes at 1 uM after 90 mins by scintillation counting method relative to control; format: cell membranes
[2] = Displacement of [3H]-di-o-tolylguanidine from sigma 2 receptor in rat liver membranes after 120 mins by scintillation counting analysis; format: cell membranes, Membrane
[3] = target: Sigma non-opioid intracellular receptor 1 (Cavia porcellus, UniProt Q60492); format: cell membranes, Brain, Membrane
Sigma non-opioid intracellular receptor 1, sequence (Q60492 whole entry): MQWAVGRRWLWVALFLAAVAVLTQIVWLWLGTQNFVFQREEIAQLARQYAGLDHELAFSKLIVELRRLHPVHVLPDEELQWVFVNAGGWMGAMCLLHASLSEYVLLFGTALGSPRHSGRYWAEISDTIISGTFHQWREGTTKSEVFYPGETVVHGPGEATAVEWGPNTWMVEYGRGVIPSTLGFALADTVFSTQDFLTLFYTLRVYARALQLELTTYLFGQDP

Glutamate receptor ionotropic, NMDA 2B, sequence (Q13224 whole entry): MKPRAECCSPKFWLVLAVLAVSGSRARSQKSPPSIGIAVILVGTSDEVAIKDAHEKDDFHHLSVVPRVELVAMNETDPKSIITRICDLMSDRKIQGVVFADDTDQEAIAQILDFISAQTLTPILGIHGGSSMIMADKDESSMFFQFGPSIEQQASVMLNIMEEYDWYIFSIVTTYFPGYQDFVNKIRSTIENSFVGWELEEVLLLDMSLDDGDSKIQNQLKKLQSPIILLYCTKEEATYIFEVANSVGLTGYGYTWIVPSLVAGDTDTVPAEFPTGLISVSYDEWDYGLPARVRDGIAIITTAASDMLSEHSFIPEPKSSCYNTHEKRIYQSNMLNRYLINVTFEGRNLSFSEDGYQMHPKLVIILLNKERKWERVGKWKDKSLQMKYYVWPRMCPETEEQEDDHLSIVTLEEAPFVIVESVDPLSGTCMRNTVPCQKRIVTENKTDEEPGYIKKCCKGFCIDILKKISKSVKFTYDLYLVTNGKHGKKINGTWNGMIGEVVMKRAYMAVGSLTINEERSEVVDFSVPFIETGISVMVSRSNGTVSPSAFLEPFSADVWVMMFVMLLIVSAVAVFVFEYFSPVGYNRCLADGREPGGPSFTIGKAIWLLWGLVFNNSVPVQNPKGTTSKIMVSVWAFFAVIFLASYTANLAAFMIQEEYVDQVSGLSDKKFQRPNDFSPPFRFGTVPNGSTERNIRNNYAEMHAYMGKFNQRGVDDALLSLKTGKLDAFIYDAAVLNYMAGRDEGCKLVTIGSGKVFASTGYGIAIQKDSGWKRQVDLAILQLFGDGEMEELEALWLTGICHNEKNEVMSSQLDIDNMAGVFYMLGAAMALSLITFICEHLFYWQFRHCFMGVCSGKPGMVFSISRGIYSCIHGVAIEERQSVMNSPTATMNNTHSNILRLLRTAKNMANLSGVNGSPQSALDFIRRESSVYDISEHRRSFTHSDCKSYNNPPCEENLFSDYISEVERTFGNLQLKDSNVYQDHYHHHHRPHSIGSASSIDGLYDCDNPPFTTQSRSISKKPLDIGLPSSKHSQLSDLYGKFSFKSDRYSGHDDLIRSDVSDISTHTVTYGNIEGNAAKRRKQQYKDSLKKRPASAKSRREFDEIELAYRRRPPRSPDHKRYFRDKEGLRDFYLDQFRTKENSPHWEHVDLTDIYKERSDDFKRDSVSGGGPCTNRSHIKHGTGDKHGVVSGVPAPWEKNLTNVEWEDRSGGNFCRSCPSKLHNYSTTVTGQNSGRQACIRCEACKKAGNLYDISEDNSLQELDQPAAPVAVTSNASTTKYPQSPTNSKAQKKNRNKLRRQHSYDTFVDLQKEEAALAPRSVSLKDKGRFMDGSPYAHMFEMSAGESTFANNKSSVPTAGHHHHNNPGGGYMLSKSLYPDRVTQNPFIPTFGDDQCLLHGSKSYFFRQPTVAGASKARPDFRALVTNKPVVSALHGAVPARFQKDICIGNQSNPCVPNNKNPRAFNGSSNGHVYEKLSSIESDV

pKi [1] | inhibition (Sus scrofa) [%] | pKi [2] | pKi [3] | Structure (SMILES)
7.77 | 2 | 7.85 | 7.27 | FC(CNC1CCc2ccccc2CC1)Cc1ccccc1 (stereo not given)
7.57 | 3 | 7.72 | 7.09 | FC(CCc1ccccc1)CNC1CCc2ccccc2CC1 (stereo not given)
7.80 |  |  |  | COc1ccc2c(c1)CC[C@H](NCCCc1ccccc1)C[C@@H]2O (relative stereo)
7.96 |  |  |  | COc1ccc2c(c1)CCC(NCCCc1ccccc1)CC2 (stereo not given)
